Values of other authors, collected in article PMC2887613 (ChemMedChem, 2009).
Read-outs that look alike come from different tables or passages of the source.

Experiments:
rat M4 [1] = target: T1, rat M4 (Rattus norvegicus, UniProt P08485); settings: rat M4/Gqi5-expressing cells, first generation compounds
T1 sequence (P08485 1-478): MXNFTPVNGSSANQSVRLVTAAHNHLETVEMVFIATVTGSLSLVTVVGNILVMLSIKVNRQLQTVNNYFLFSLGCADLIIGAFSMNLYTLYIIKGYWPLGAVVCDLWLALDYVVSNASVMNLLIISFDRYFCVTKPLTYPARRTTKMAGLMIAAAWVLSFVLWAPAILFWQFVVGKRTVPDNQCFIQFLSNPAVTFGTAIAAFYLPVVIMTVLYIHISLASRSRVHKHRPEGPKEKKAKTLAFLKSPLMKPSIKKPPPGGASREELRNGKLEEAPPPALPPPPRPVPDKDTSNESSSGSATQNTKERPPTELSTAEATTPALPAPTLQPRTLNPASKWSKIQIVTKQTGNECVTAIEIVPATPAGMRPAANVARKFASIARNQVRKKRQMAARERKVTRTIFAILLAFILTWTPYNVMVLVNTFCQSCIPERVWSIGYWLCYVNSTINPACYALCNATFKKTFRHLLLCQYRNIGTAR

rat M4 [2] = target: T1, rat M4
[3] = lead compound
[4] = rat, microsomes, 1.5 h
[5] = human, microsomes, 1.5 h

SMILES	brain penetration	EC50 (rat M4 [1])	leftward shift of an ACh CRC (rat M4 [2]; Ca2+ mobilization assay in rat M4/Gqi5-expressing cells)	ACh CRC fold-shift (rat M4 [2]; first generation compounds, previously reported)	solubility [3]	parent remaining [4]	brain penetration (in vivo)	parent remaining [5]
Cc1cc(C)c2c(N)c(C(=O)NCc3ccc(Cl)cc3)sc2n1 [Compd 1]	lack of brain penetration	400 nM	47 fold	47 x	solubility issues			
COc1ccc(CNC(=O)c2sc3nc(C)cc(C)c3c2N)cc1 [Compd 3]						< 10%	centrally penetrating	< 10%
